Reference: patent US20240381872A1, “SUBSTITUTED 2,3-DIHYDRO[1,3]THIAZOLO[4,5-B]PYRIDINES, SALTS THEREOF AND THEIR USE AS HERBICIDALLY ACTIVE SUBSTANCES” (BAYER AKTIENGESELLSCHAFT, priority 2021, published 2024)

How the values were obtained:
Type in all cases: in vivo
[1] = test system: Amaranthus retroflexus (AMARE); assay: Herbicidal post-emergence action, section B (Table B11); conditions: application rate 1280 g/ha; visual rating about 3 weeks after treatment vs untreated controls
Procedure, shortened: (§1)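 Scores are visual % activity relative to untreated plants (0% = like control, 100% = dead), taken about 3 weeks after spraying. Compounds, as WP or EC in water with 0.5% additive at 600 L/ha, went onto one-leaf-stage weeds grown from seed in sandy loam under greenhouse conditions.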

Stellaria media (STEME) [2] = assay: Herbicidal post-emergence action, section B (Table B9); conditions: application rate 1280 g/ha; visual rating about 3 weeks after treatment vs untreated controls
Procedure, shortened: as §1

[3] = test system: Amaranthus retroflexus (AMARE); assay: Herbicidal pre-emergence action, section A (Table A11)
Procedure, shortened: (§2)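 Seeds sown in sandy loam and covered with soil; compounds formulated as WP or EC were applied to the soil surface as aqueous suspension or emulsion with 0.5% additive at 600 l water/ha. Pots kept in greenhouse under optimum conditions; damage scored visually after ca. 3 weeks versus untreated controls (0–100%).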

Poa annua (POAAN) [4] = assay: Herbicidal pre-emergence action, section A (Table A7); conditions: visual grading after ca. 3 weeks vs untreated controls
Procedure, shortened: as §2

Stellaria media (STEME) [5] = assay: Herbicidal pre-emergence action, section A (Table A9)
Procedure, shortened: as §2

[6] = test system: Abutilon theophrasti (ABUTH); assay: Herbicidal post-emergence action, section B (Table B1); conditions: application rate 1280 g/ha, rated visually after about 3 weeks
Experimental: (§3) Seeds of mono- and dicotyledonous weed plants were placed in plastic pots in sandy loam soil (doubly sown with in each case one species of mono- or dicotyledonous weed plants per pot), covered with soil and cultivated in a greenhouse under controlled growth conditions. 2 to 3 weeks after sowing, the test plants were treated at the one-leaf stage. The compounds of the invention, formulated in the form of wettable powders (WP) or as emulsion concentrates (EC), were applied onto the green parts of the plants as aqueous suspension or emulsion with addition of 0.5% additive at a water application rate of 600 liters per hectare (converted). After the test plants had been kept in the greenhouse under optimum growth conditions for about 3 weeks, the activity of the preparations was rated visually in comparison to untreated controls. For example, 100% activity=the plants have died, 0% activity=like control plants.

[7] = test system: Echinochloa crus-galli (ECHCG); assay: Herbicidal pre-emergence action, section A (Table A3); conditions: visual grading after ca. 3 weeks vs untreated controls
Procedure, shortened: as §2

Setaria viridis (SETVI) [8] = assay: Herbicidal pre-emergence action, section A (Table A8); conditions: application rate 1280 g/ha
Procedure, shortened: as §2

[9] = test system: Digitaria sanguinalis (DIGSA); assay: Herbicidal pre-emergence action, section A (Table A12); conditions: application rate 1280 g/ha
Procedure, shortened: as §2

Kochia scoparia (KCHSC) [10] = assay: Herbicidal pre-emergence action, section A (Table A4); conditions: visual grading after ca. 3 weeks vs untreated controls
Procedure, shortened: as §2

[11] = test system: Abutilon theophrasti (ABUTH); assay: Herbicidal pre-emergence action, section A (Table A1); conditions: application rate 1280 g/ha; visual grading after ca. 3 weeks vs untreated controls
From the text: (§4) Seeds of mono- and dicotyledonous weed plants were sown in plastic pots (double sowings with one species of mono- and one species of dicotyledonous weed plants per pot), in sandy loam, and covered with soil. The compounds according to the invention, formulated in the form of wettable powders (WP) or as emulsifiable concentrates (EC), were applied to the surface of the covering soil as aqueous suspension or emulsion, with the addition of 0.5% of an additive, at an application rate of 600 l of water per hectare (converted). Following treatment, the pots were placed in a greenhouse and kept under optimum growth conditions for the test plants. The visual grading of the damage to the test plants was carried out after ca. 3 weeks in comparison to untreated controls (herbicidal effect in percent (%): 100% effect=plants have died off, 0% effect=as control plants).

[12] = test system: Matricaria inodora (MATIN); assay: Herbicidal pre-emergence action, section A (Table A6); conditions: application rate 1280 g/ha; visual grading after ca. 3 weeks vs untreated controls
Procedure, shortened: as §2

Poa annua (POAAN) [13] = assay: Herbicidal post-emergence action, section B (Table B7); conditions: application rate 1280 g/ha; visual rating about 3 weeks after treatment vs untreated controls
Experimental: as §3

Kochia scoparia (KCHSC) [14] = assay: Herbicidal post-emergence action, section B (Table B4); conditions: application rate 320 g/ha; visual rating about 3 weeks after treatment vs untreated controls
Procedure, shortened: as §1

[15] = test system: Triticum aestivum (TRZAS); assay: Pre-emergence effects on crop plants, section D (Table D2); conditions: application rate 80 g/ha; visual grading after ca. 3 weeks
From the text: (§5) Seeds of mono- and dicotyledonous weed plants and crop plants were sown, in plastic or organic planting pots, in sandy loam and covered with soil. The compounds according to the invention, formulated in the form of wettable powders (WP) or as emulsifiable concentrates (EC), were applied to the surface of the covering soil as aqueous suspension or emulsion, with the addition of 0.5% of an additive, at an application rate of 600 l of water/ha (converted).
(§6) Following treatment, the pots were placed in a greenhouse and kept under optimum growth conditions for the test plants. The visual grading of the damage to the test plants was carried out after ca. 3 weeks in comparison to untreated controls (herbicidal effect in percent (%): 100% effect=plants have died off, 0% effect=as control plants).
(§7) Tables D1 to D5 below show the effects of various compounds of the general formula (I) according to Table 1 on various crop plants and an application rate corresponding to 320 g/ha or below obtained by the experimental procedure mentioned above in Biological Examples, Section C.

[16] = test system: Amaranthus retroflexus (AMARE); assay: Herbicidal pre-emergence action, section C (Table C11); conditions: Amaranthus retroflexus, pre-emergence, 504 h; application rate 320 g/ha; visual grading after ca. 3 weeks; read-out: pre-emergence activity against AMARE in %
From the text: Seeds of mono- and dicotyledonous weed plants and crop plants were sown, in plastic or organic planting pots, in sandy loam and covered with soil. The compounds according to the invention, formulated in the form of wettable powders (WP) or as emulsifiable concentrates (EC), were applied to the surface of the covering soil as aqueous suspension or emulsion, with the addition of 0.5% of an additive, at an application rate of 600 l of water/ha (converted). Following treatment, the pots were placed in a greenhouse and kept under optimum growth conditions for the test plants. The visual grading of the damage to the test plants was carried out after ca. 3 weeks in comparison to untreated controls (herbicidal effect in percent (%): 100% effect=plants have died off, 0% effect=as control plants).

Glycine max (GLXMA) [17] = assay: Post-emergence effects on crop plants, section F (Table F4); conditions: Glycine max, 504 h, application rate 80 g/ha, read-out: post-emergence activity against GLXMA in %
From the text: (§8) Seeds of mono- and dicotyledonous weed plants and crop plants were sown, in plastic or organic planting pots, in sandy loam, covered with soil and grown in a greenhouse under controlled growth conditions. 2 to 3 weeks after sowing, the test plants were sprayed in the single-leaf stage. The compounds according to the invention, formulated in form of wettable powders (WP) or as emulsifiable concentrates (EC), were sprayed onto the green plant parts as aqueous suspension or emulsion, with the addition of 0.5% of an additive, at an application rate of 600 l of water/ha (converted). The test plants were placed in the greenhouse for ca. 3 weeks under optimum growth conditions, and then the effect of the preparations was assessed visually in comparison with untreated controls (herbicidal effect in percent (%): 100% effect=plants have died off, 0% effect=as control plants). Tables F1 to F4 below show the effects of selected compounds of the general formula (I) according to Table 1 on various crop plants and an application rate corresponding to 320 g/ha or below obtained by the experimental procedure mentioned above.

Zea mays (ZEAMX) = assay: Post-emergence effects on crop plants, section F (Table F1); conditions: Zea mays, 504 h, application rate 320 g/ha, read-out: post-emergence activity against ZEAMX in %
From the text: as §8

Glycine max (GLXMA) [18] = assay: Pre-emergence effects on crop plants, section D (Table D4); conditions: application rate 80 g/ha; visual grading after ca. 3 weeks
From the text: as §5, §6, §7

[19] = test system: Triticum aestivum (TRZAS); assay: Post-emergence effects on crop plants, section F (Table F2); conditions: Triticum aestivum, 504 h, application rate 320 g/ha, read-out: post-emergence activity against TRZAS in %
From the text: as §8

[20] = test system: Digitaria sanguinalis (DIGSA); assay: Herbicidal post-emergence action, section B (Table B12); conditions: application rate 1280 g/ha; visual rating about 3 weeks after treatment vs untreated controls
Experimental: as §3

Lolium rigidum (LOLRI) = assay: Herbicidal pre-emergence action, section A (Table A5); conditions: application rate 320 g/ha; visual grading after ca. 3 weeks vs untreated controls
Procedure, shortened: as §2

Veronica persica (VERPE) [21] = assay: Herbicidal post-emergence action, section B (Table B10); conditions: application rate 320 g/ha; visual rating about 3 weeks after treatment vs untreated controls
Procedure, shortened: as §1

[22] = test system: Alopecurus myosuroides (ALOMY); assay: Herbicidal pre-emergence action, section A (Table A2); conditions: application rate 1280 g/ha; visual grading after ca. 3 weeks vs untreated controls
From the text: as §4

Veronica persica (VERPE) [23] = assay: Herbicidal pre-emergence action, section A (Table A10); conditions: application rate 1280 g/ha
Procedure, shortened: as §2

Setaria viridis (SETVI) [24] = assay: Herbicidal post-emergence action, section B (Table B8); conditions: application rate 1280 g/ha; visual rating about 3 weeks after treatment vs untreated controls
Experimental: as §3

Row | SMILES | post-emergence activity against AMARE in % [1] [%] | post-emergence activity against STEME in % (Stellaria media (STEME) [2]) [%] | pre-emergence activity against AMARE in % ([3]; application rate 1280 g/ha) [%] | pre-emergence activity against STEME in % (Stellaria media (STEME) [5]; application rate 320 g/ha) [%] | post-emergence activity against ABUTH in % [6] [%] | pre-emergence activity against SETVI in % (Setaria viridis (SETVI) [8]) [%] | pre-emergence activity against DIGSA in % [9] [%] | pre-emergence activity against MATIN in % [12] [%] | post-emergence activity against POAAN in % (Poa annua (POAAN) [13]) [%] | post-emergence activity against KCHSC in % (Kochia scoparia (KCHSC) [14]) [%] | post-emergence activity against DIGSA in % [20] [%] | pre-emergence activity against KCHSC in % (Kochia scoparia (KCHSC) [10]; application rate 1280 g/ha) [%] | also measured
1 | Cc1cc2c(nc1-c1cccc(C)c1C)N(C(=O)C1(C)CC(Cl)=NO1)CS2 (stereo not drawn) [Example I-138] | 100 | 90 | 90 | 90 | 90 | 100 | 90 | 90 | 90 | 90 |  |  | pre-emergence activity against POAAN in % (Poa annua (POAAN) [4]; application rate 320 g/ha): 100%; pre-emergence activity against ECHCG in % ([7]; application rate 320 g/ha): 90%; pre-emergence activity against KCHSC in % (Kochia scoparia (KCHSC) [10]; application rate 320 g/ha): 90%; pre-emergence activity against ABUTH in % [11]: 90%
2 | Cc1cc2c(nc1-c1cccc(F)c1F)N(S(C)(=O)=O)CS2(=O)=O [Example I-151, 5-(2,3-difluorophenyl)-3-(methylsulfonyl)-6-methyl-2,3-dihydro[1,3]thiazolo[4,5-b]pyridine 1,1-dioxide] |  |  |  |  |  |  |  |  |  |  |  |  | pre-emergence activity against TRZAS in % (crop plant damage) [15]: 0%; pest or weed control at 320 g/ha [16]: 100%; percent crop plant damage at 80 g/ha (Glycine max (GLXMA) [17]): 0%; percent crop plant damage (phytotoxicity) on Zea mays, post-emergence at 320 g/ha (Zea mays (ZEAMX)): 0%; pre-emergence activity against GLXMA in % (crop plant damage) (Glycine max (GLXMA) [18]): 0%; percent crop plant damage (wheat, post-emergence) at 320 g/ha [19]: 0%
3 | CC(=O)N1CSc2cc(Br)c(-c3cccc(Cl)c3F)nc21 [Example I-115] |  |  | 90 |  |  |  | 100 |  | 90 |  | 90 | 90 | pre-emergence activity against STEME in % (Stellaria media (STEME) [5]; application rate 1280 g/ha): 90%
4 | Cc1ccccc1-c1nc2c(cc1Br)SCN2B1NB(N)N1 [Example I-056] | 90 | 90 |  | 90 | 90 | 100 | 100 | 90 | 90 | 90 | 90 | 100 | pre-emergence activity against AMARE in % ([3]; application rate 320 g/ha): 90%; pre-emergence activity against POAAN in % (Poa annua (POAAN) [4]; application rate 1280 g/ha): 100%; pre-emergence activity against ECHCG in % ([7]; application rate 1280 g/ha): 100%; pre-emergence activity against LOLRI in % (Lolium rigidum (LOLRI)): 100%; post-emergence activity against VERPE in % (Veronica persica (VERPE) [21]): 90%; pre-emergence activity against ALOMY in % [22]: 90%; pre-emergence activity against VERPE in % (Veronica persica (VERPE) [23]): 90%; post-emergence activity against SETVI in % (Setaria viridis (SETVI) [24]): 90%
